Data: patent US20220340983A1, “SYSTEMS AND ASSAYS FOR IDENTIFYING PU.1 INHIBITORS” (Massachustts Institute of Technology, priority 2019, published 2022)
Starred links: 1 amine or outer side, 2 acyl side, 3 side chain; linkers in the order of their positions; H or OH if unused. Positions of bridges follow the written chain, without caps; N, C: chain ends. Non-standard residues stand in square brackets, D forms with d. Residues, ends and D or L forms follow the SMILES beside them. Chains are numbered I, II in the order given. Actinocin(9to1) = Cc1c2oc3c(C)ccc(C(=O)[*:1])c3nc-2c(C(=O)[*:2])c(N)c1=O; NMeV = CN[C@H](C(=O)O)C(C)C; Sar = CNCC(=O)O

Legend:
[1] = system: BV2 PU.1-Luciferase cells; experiment: Cell viability (Hoechst staining) in BV2 PU.1-Luciferase cells; type: cell-based, mouse
Procedure: The BV2 PU.1-Luciferase cells (referred to as “cells” from here onward) were plated into a 384-well plate, using an automatic dispenser, 2000 cells per well in 30 μL of media composed of RPMI (Sigma-Aldrich), 10% FBS, 1% PenStrep (50 mg/mL) and 1% G418 (50 mg/mL) was plated. […] For reproducibility, each pin array with 384 compounds was added to 4 plates of cells. The cells and compounds were incubated at 37° C. for a period of time sufficient for the compounds to have an effect on the cells (about 2 days). Subsequently, automatic of 30 μL of BrightGlo (Promega) was dispensed into 2 of the 4 plates, in order to lyse the cells and drive the luminescence reaction whereafter the luminescence intensity was measured by a plate reader (Perkin Elmer EnVision). The two other plates were fixed by automatically dispensing 30 μL of 10% formaldehyde with 2μL Hoechst per 1 mL formaldehyde which were left at room temperature for one hour, followed by plate reading (Acumen (TTPLabTech)). A compound transfer and treatment would be repeated if reproducibility between the luminescence plates and/or the fixed Hoechst plates was lacking. […] Luminescence values used were corrected for crosstalk. Hoechst values were total fluorescence area per well. Determination of a positive hit considered both the reduction of luminescence as well as a possible confounding reduction in cell viability. […]

[2] = system: HEK293 CMV-Luciferase cells; experiment: Cell viability (Hoechst staining) in HEK293 CMV-Luciferase cells; conditions: for cell viability (Hoechst) (FIG. 2D): HEK293 CMV-Luciferase cell line, 1 μM; for cell viability (Hoechst-staining): HEK293 CMV-Luciferase line, 2-day incubation, actinomycin D, puromycin, 119113 10 μM, DB2313 2.5 μM
Procedure: Assays were conducted for percent luminescence and cell viability (Hoechst-staining) after a 2-day incubation under the following conditions. As negative controls pure DMSO and “mock” conditions (where nothing is added to the cells) were used.

[3] = system: PU.1 dependent gene expression; experiment: RT-qPCR of mRNA levels in BV2 PU.1-Luciferase cells (validation round 3); type: cell-based, mouse; conditions: 2-day treatment
Procedure: The Asinex1 and ChemDiv6 libraries contain molecules with unknown biological properties, but with low toxicity, high stability, and a broad structural diversity used to generate structure-activity-relationships (SAR) of the PU.1 inhibitors. […] In order to obtain the SAR, three rounds of validation were performed. In round 1, false-positive, non-specific luciferase quencher molecules were excluded using the commercially available HEK293 CMV-Luciferase line that constitutively expresses luciferase under the CMV promoter. In round 2, weak (non-significant) hits were eliminated according to degree of PU.1 inhibition in the absence of cell death. In round 3, drugs were selected that reduce PU.1-dependent gene expression with RT-qPCR.

PU.1 [4] = molecular target: T1, PU.1 (Mus musculus, UniProt P17433); experiment: Luciferase assay (luminescence) in BV2 PU.1-Luciferase reporter cells; type: cell-based; conditions: for IC50: luminescence reduction in BV2 PU.1-Luciferase cells, concentration-response, Hill's equation
T1 construct: endogenous in cells; host or cells: BV2 PU.1-Luciferase (mouse microglial BV2 with a 5xLBB-luciferase reporter integrated at ROSA26)
Text: PU.1 belongs to a group of transcription factors that all bind to the middle 5′-GGAA-3′ sequence. The flanking A/T rich sequence is crucial for conferring PU.1 selective binding. The flanking sequence requires unique structural properties of PU.1 and can therefore be targeted by drugs acting as allosteric inhibitors that prevent PU.1 from binding to the LBB. In order to achieve robust PU.1 binding, five tandem copies of the LBBs (5×LBB) were inserted into the luciferase promoter of the pGL4.23 plasmid. The region containing the five LBBs (5×LBB) was then subcloned into the pROSA26-1 plasmid (together with a PGKneo bpA plasmid for Neomycin/G418 resistance) that allows stable integration in chromosome 6 of the immortalized mouse microglial BV2 cell line (FIG. 2B). The stable cell line was created by selection with G418.
The BV2 PU.1-Luciferase cells (referred to as “cells” from here onward) were plated into a 384-well plate, using an automatic dispenser, 2000 cells per well in 30 μL of media composed of RPMI (Sigma-Aldrich), 10% FBS, 1% PenStrep (50 mg/mL) and 1% G418 (50 mg/mL) was plated. A robotic arm was used to transfer compounds in a 384-well format using a pin array into the plate containing the cells (here, 33 nL was transferred from a drug library containing 10 mM concentration of drugs for a final concentration of 10 μM per well). For reproducibility, each pin array with 384 compounds was added to 4 plates of cells. […] Subsequently, automatic of 30 μL of BrightGlo (Promega) was dispensed into 2 of the 4 plates, in order to lyse the cells and drive the luminescence reaction whereafter the luminescence intensity was measured by a plate reader (Perkin Elmer EnVision). The two other plates were fixed by automatically dispensing 30 μL of 10% formaldehyde with 2μL Hoechst per 1 mL formaldehyde which were left at room temperature for one hour, followed by plate reading (Acumen (TTPLabTech)). A compound transfer and treatment would be repeated if reproducibility between the luminescence plates and/or the fixed Hoechst plates was lacking. The drugs were selected and ranked according to the criteria described in FIG. 13. Luminescence values used were corrected for crosstalk. Hoechst values were total fluorescence area per well. Determination of a positive hit considered both the reduction of luminescence as well as a possible confounding reduction in cell viability. The formula used was y=(value−meanvalue)/stddev. […] Compounds were excluded if cell viability was reduced >2 standard deviations from the mean, using the same formula. The positive hits were then validated in multiple steps in order to identify true PU.1 inhibitors.
The degree of luminescence reduction of the hits was plotted with significant effective area under the curve in order to obtain an IC50.

[5] = system: HEK293 CMV-Luciferase cells; experiment: Luminescence in HEK293 CMV-Luciferase control line (luciferase quencher counter-screen); type: cell-based
Text: The IACS Selleck Known Bioactive library (2,100 compounds) was screened and there 35 hits were identified (˜1.7% hit rate), the Asinex1 library (12,000 compounds) was screened and 60 hits were identified (˜0.5% hit rate), and the ChemDiv6 library (44,000 compounds) was screened and 169 hits were identified (˜0.4% hit rate). The Selleck library contains drugs approved by the United States Food and Drug Administration (FDA) with known intracellular mechanisms of action which will give instant insight into pathways that block PU.1 activity. The Asinex1 and ChemDiv6 libraries contain molecules with unknown biological properties, but with low toxicity, high stability, and a broad structural diversity used to generate structure-activity-relationships (SAR) of the PU.1 inhibitors. SAR is used to design new drug libraries containing only molecules with similar structures as previous hits. In order to obtain the SAR, three rounds of validation were performed. In round 1, false-positive, non-specific luciferase quencher molecules were excluded using the commercially available HEK293 CMV-Luciferase line that constitutively expresses luciferase under the CMV promoter. In round 2, weak (non-significant) hits were eliminated according to degree of PU.1 inhibition in the absence of cell death. In round 3, drugs were selected that reduce PU.1-dependent gene expression with RT-qPCR.

PU.1 [6] = molecular target: T1, PU.1; experiment: Luciferase assay (luminescence) in BV2 PU.1-Luciferase reporter cells; type: cell-based; conditions: BV2 PU.1-Luciferase cells, 1 μM

SMILES | cell viability (Hoechst) (FIG. 2D) ([1]; BV2 PU.1-Luciferase cells, 1 μM) | cell viability (Hoechst-staining) ([1]; BV2 PU.1-Luciferase line, 2-day incubation, actinomycin D, puromycin, 119113 10 μM, DB2313 2.5 μM) | cell viability (Hoechst) (FIG. 2D) [2] | cell viability (Hoechst-staining) [2] | mRNA levels Apoe [3] | mRNA levels IL1β [3] | mRNA levels Lucif. [3] | mRNA levels Spi1 [3] | mRNA levels Trem2 [3] | mRNA levels Tyrobp [3] | IC50 (PU.1 [4]) | percent luminescence (PU.1 [4]; BV2 PU.1-Luciferase line, 2-day incubation, 119113 10 μM, DB2313 2.5 μM) | luminescence (FIG. 2D) ([5]; HEK293 CMV-Luciferase cell line, 1 μM) | percent luminescence ([5]; HEK293 CMV-Luciferase line, 2-day incubation, 119113 10 μM, DB2313 2.5 μM) | luminescence (FIG. 2D) (PU.1 [6])
Cc1c2oc3c(C)ccc(C(=O)N[C@@H]4C(=O)N[C@H](C(C)C)C(=O)N5CCC[C@H]5C(=O)N(C)CC(=O)N(C)[C@@H](C(C)C)C(=O)O[C@@H]4C)c3nc-2c(C(=O)N[C@@H]2C(=O)N[C@H](C(C)C)C(=O)N3CCC[C@H]3C(=O)N(C)CC(=O)N(C)[C@@H](C(C)C)C(=O)O[C@@H]2C)c(N)c1=O [Actinomycin D] (I: T[dV]P[Sar][NMeV] / II: T[dV]P[Sar][NMeV]; ester I:1-I:C, II:1-II:C; linker I:N-II:N via Actinocin(9to1)) | toxic | reduced cell viability | toxic | reduced cell viability |  |  |  |  |  |  |  |  |  |  | 
CC(=NCCCn1ccnc1)c1c(C(F)(F)F)[nH]n(-c2nc3ccccc3s2)c1=O [Compound E01] |  |  |  |  | 0.823 multiples of 1× | 0.986 multiples of 1× | 0.416 multiples of 1× | 0.912 multiples of 1× | 0.903 multiples of 1× | 0.988 multiples of 1× | 663 nM |  |  |  | 
CC(C)N=C(N)c1ccc2nc(-c3ccc(OCc4cccc(COc5ccc(-c6nc7ccc(C(N)=NC(C)C)cc7[nH]6)cc5)c4F)cc3)[nH]c2c1 [DB2313, reference compound] |  |  | only in the BV2 PU.1-Luciferase line | no effect | 0.600 multiples of 1× | 0.460 multiples of 1× | 0.340 multiples of 1× | 0.820 multiples of 1× | 1.030 multiples of 1× | 1.030 multiples of 1× |  | reduction in luminescence | only in the BV2 PU.1-Luciferase line | no effect | reduced luminescence
CCOC(=O)O[C@]1(C(=O)OCCl)CC[C@H]2[C@@H]3CCC4=CC(=O)C=C[C@]4(C)[C@H]3[C@@H](O)C[C@@]21C [Loteprednol, reference compound] |  |  |  |  | 1.579 multiples of 1× | 0.805 multiples of 1× | 0.265 multiples of 1× | 1.167 multiples of 1× | 0.979 multiples of 1× | 0.927 multiples of 1× | 3 nM |  |  |  | 
C[C@@H]1C[C@H]2[C@@H]3CCC4=CC(=O)C=C[C@]4(C)[C@@]3(Cl)[C@@H](O)C[C@]2(C)[C@@]1(O)C(=O)CCl [Mometasone, reference compound] |  |  |  |  | 1.444 multiples of 1× | 0.531 multiples of 1× | 0.520 multiples of 1× | 1.016 multiples of 1× | 1.051 multiples of 1× | 1.343 multiples of 1× | 3 nM |  |  |  | 
COc1ccc(C[C@H](N)C(=O)N[C@H]2[C@@H](O)[C@H](n3cnc4c(N(C)C)ncnc43)O[C@@H]2CO)cc1 [puromycin] |  |  | ineffective | resistant |  |  |  |  |  |  |  |  |  |  | 
